Results reported in US20130324543A1, “REVERSAL OF HIGH BREAST CANCER RISK IN MAMMALS EXPOSED TO ESTROGENIC CHEMICALS IN UTERO BY ADULT EXPOSURE TO HDAC AND DNMT INHIBITORS” (Georgetown University, priority 2012, published 2013).
Entries after “also recorded” stand apart in the source; their conditions may differ.

What was measured:
[1] = Puberty onset (vaginal opening) of female mice exposed in utero; type: in vivo, C57BL/6 mice; details: female offspring, in utero exposure
Description: To assess possible changes in sexual maturation due to in utero ECD exposures during embryogenesis, the day of puberty onset was recorded, as defined based on vaginal opening (VO) in female mice. The mice were examined once a day starting on PND 21. In sexually mature mice, the stage of estrus cycle was determined based on the cytology of their vaginal smear (sampled by pipetting 20 μl PBS in and out of vagina onto a slide) as judged under the microscope. Stage of estrus cycle was determined for each mouse before necropsy and sample collection.

[2] = Immediate adverse effects of dietary exposure in adult non-pregnant littermates of dams; type: in vivo, mice; details: last day of dietary exposure, data not shown
Description: For ethical reasons non-pregnant littermate females were used for blood collection instead of the dams, and the samples were taken on the last day of their dietary exposure. Blood was collected by heart puncture of anesthetized mice prior to euthanasia, and serum was separated by centrifugation (1000×g for 10 min) and stored frozen until hormone measurements.
In addition, possible immediate adverse effects of EE2, BPA and GEN exposure for adult mice were evaluated using the non-pregnant littermates of dams. Their body weights were recorded and the mammary gland morphology examined on the last day of their dietary exposure.

mammary gland [3] = assay: Mammary gland morphology of in utero exposed mice (whole mounts); type: in vivo, C57BL/6 mice; details: female mice, PND 27
Description: One of the two #4 abdominal mammary glands was dissected and fixed in Carnoy's fixative and processed into whole mounts as previously described (8). The other #4 abdominal gland was snap frozen in liquid nitrogen and stored in −80° C. for future analysis. One of the two thoracic #2-3 mammary glands was fixed in neutral buffered 10% formalin, embedded in paraffin and processed for histology using routine methods, and the other was snap frozen in liquid nitrogen, also stored in −80° C. for future analysis. Uterus was dissected, and one horn with the ovary and vagina attached was fixed in 10% formalin, embedded in paraffin and processed for histology, and the other horn and one ovary were frozen in liquid nitrogen and stored in −80° C.
To assess possible changes in mammary gland morphology, whole amounts of the 4th abdominal glands obtained on PND 27 were processed as previously described (4, 72). The total number of terminal end buds (TEBs) was counted. Identification of TEBs was based on the guidelines established by Russo and Russo (64). The total area (in pixels) of epithelium of the peripubertal (PND 27) mammary glands was analyzed by using ImageJ software (available through NIH web site) on digitized pictures of mammary whole mounts with ducts manually intensified black against white background (shown as an insert in FIG. 16). Ductal elongation (mammary epithelial outgrowth) on PND 50 was measured as the growth in millimeters from the end of the lymph node to the end of the epithelial tree. All the analyses were done blindly using an Olympus dissecting microscope.

DNMT1 = DNMT1 mRNA expression (qRT-PCR) in mouse mammary glands and tumors; type: in vivo; details: in utero exposure vs control mice
Description: Total RNA was extracted using an RNeasy lipid mini kit (Qiagen, CA), according to manufacturer's instructions. One […] of total RNA per sample was used as a template for oligo-dT primed cDNA synthesis with a Supterscript reverse transcriptase, using Taqman Reverse Transcription kit (Applied Biosystems, CA). The cDNA samples served then as templates for quantitative real time PCR analysis with specific primers for the target gene using QuantiTect SYBR green PCR kit (Qiagen Inc., Valencia, Calif.) and an ABI Prism 7900 Sequence Detection System. Each sample was run in triplicate on a 384-well plate, and the qPCR run was repeated twice. The Ct values were averaged from the triplicates for each sample. To normalize the target gene expression the ratio to control RNA was calculated, i.e. the averages of the Ct triplicates from the Dnmt1 gene were divided by the average of the triplicates from the 18S gene. To determine the fold change of the target gene expression the results are presented as 2^ΔCt, where ΔCt=CT^target−Ct^18S.
The primer sequences for m18S rRNA were as previously published by Wang et al. (27).
(§1) Mammary tumor latency was compared with the final tumor burden in utero EE2 and GEN exposed mice to control mice, and in utero EE2 and GEN exposed mice to control mice exposed to HDAC+DNMT inhibitors separately; analysis was done using one-way ANOVA. Cumulative tumor burden during 16 weeks of tumor monitoring in the three groups, separately in those mice not given HDAC+DNMT inhibitors and those treated with the epigenetic drugs, was analysed using repeated measures one-way ANOVA. Log rank analysis was performed to compare mammary tumor incidence in the control and in utero EE2 and GEN exposed mice, again separately in those mice not given HDAC+DNMT inhibitors and those treated with the epigenetic drugs. Data for changes in DNMT1 expression among the groups in the mammary glands and tumors were assessed using two-way ANOVA, followed by Fisher LSD test

mammary tumors [4] = assay: MPA/DMBA mammary tumorigenesis in mice exposed in utero to EE2, GEN or BPA (Example 5); type: in vivo, C57BL/6 mice
Description: (§2) Additions to the basic diet were as follows: 1) cornstarch [control]; 2) EE2 0.1 ppm; 3) BPA 0.155 ppm; 4) GEN 500 ppm.

[5] = Body weight and growth of in utero exposed pups; type: in vivo, C57BL/6 mice; details: in utero exposure
Description: as §2

mammary tumors [6] = assay: MPA/DMBA-induced mammary tumorigenesis in mice exposed in utero to EE2 or GEN, with or without adult HDAC+DNMT inhibitors
Description: Time pregnant C57BL/6 female mice were obtained from Harlan (Harlan-Teclad, USA) on gestation day 6, and were randomly assigned into three groups on the following day (gestation day 7). The basic diet formulation in the study was a semi-purified AIN93G (the American Institute of Nutrition) modified to replace soy oil for corn oil; all the diets of the three treatment groups were also purchased from Harlan. The diets were isocaloric, as ethinyl estradiol (EE2) or genistein (GEN) were added in the diet at the expense of comstarch. Additions to the basic diet were as follows: 1) EE2 0.1 ppm, and 2) GEN 500 ppm. EE2 was purchased from Sigma Chemicals (St. Louis, Mo., USA), and GEN was a gift from Dr. William Helferich (University of Illinois, Urbana, Ill., USA).
The pregnant dams were fed these diets until the day of the delivery of their pups (Post Natal Day 0, PND 0). Starting on PND 0, all mice were fed the control diet until the end of the study. Female mice born from the dams fed with the different above mentioned diets were used in the subsequent studies. For study outline, see FIG. 12. Animals were housed in a temperature- and humidity-controlled room under a 12-hour light-dark cycle. All animal procedures were approved by the Georgetown University Animal Care and Use Committee, and the experiments were performed following the National Institutes of Health guidelines for the proper and humane use of animals in biomedical research.
Mammary tumors were induced by administration of a subcutaneous injection of Medroxyprogesterone Acetate (MPA) to mice at 6 weeks of age, followed by administration of 1 mg 7,12-dimethylbenz(a)anthracene (DMBA) (Sigma, St. Louis, Mo.) weekly for four weeks (weeks 7, 8, 9, 10) (23). The carcinogen was dissolved in corn oil and administered by oral gavage in a volume of ca. 0.1 ml.
One week after the last dose of DMBA was administered, some of the mice were started on hydralazine (5 mg/kg/day) and valproic acid treatments (1.16 g/kg/day) treatments.
The two compounds were given in a drinking water, which was prepared fresh twice a week. The doses were chosen based on the literature (24-26). The number of animals in each group is as follows: Control n=18, Control given HDAC+DNMT inhibitors n=9, EE2 n=9, EE2 given HDAC+DNMT inhibitors n=6, GEN n=14, and GEN given HDAC+DNMT inhibitors n=8.
Mice were examined for mammary tumors by palpation once per week. Tumor growth was monitored for 16 weeks after the last dose of DMBA administration. During the follow-up, animals in which tumor burden approximated 10% of total body weight were euthanized, as required by the ethical guidelines of our institution. All surviving animals were sacrificed at that point for sample collection. The end-points for tumor data analysis were (i) latency to tumor appearance, (ii) the number of animals with tumors (tumor incidence), and (iii) the cumulative tumor area (tumor burden). The latter was achieved by adding the total tumor area per group each week and dividing it with the number of mice in the group.
as §1

mammary tumors [7] = assay: Mammary tumorigenesis in F1 rats exposed to E2 in utero (FIG. 7); type: in vivo; details: F1 generation exposed in utero vs controls
[8] = system: estrogen receptor alpha (ER-a); assay: ER-a methylation and expression in mammary glands of in utero E2 exposed rats
Description: A high in utero estrogenic environment increases the risk of developing breast cancer (FIG. 1). Increased risk is associated with greater epithelial cell proliferation and survival during mammary gland development, driven by persistent changes in the mammary transcriptome. How these transcriptional changes are initiated and maintained is unclear. […] We then determined whether estrogen receptor alpha (ER-a) is methylated in the E2 exposed rats. […] These mechanisms could include non-coding microRNAs (miRNAs) which are essential for early development and which inhibit expression of their target genes. Since several miRNAs are known to be suppressed by E2 in MCF-7 human breast cancer cells (Maillot et al. Cancer Res 2009), we determined whether persistent changes in miRNA expression may be seen in the adult mammary glands of rats exposed to E2 in utero. miRNAs were measured using applied Biosystems TaqManR Array Rodent MicroRNA.

mammary tumors [9] = assay: Acquired tamoxifen (TAM) resistance of mammary tumors in in utero exposed rats; type: in vivo; details: 14-week follow-up, 7% in the control group
mammary gland [10] = assay: Mammary gland morphology and TEB number after maternal E2 or high fat diet (FIG. 8, 11); type: in vivo, rats
Description: exposures during pregnancy: […] Statistical analysis was done using ANOVA followed by between group comparisons using Tukey test. […] TEBs are the sites which give rise to malignant mammary tumors in rats; similar structures in the human breast-terminal ductal lobular units-give rise to 90% of human breast cancers.

PcGTs = assay: Microarray expression of PcGTs in mammary glands of in utero E2 exposed rats; type: in vivo; details: PND 50
[11] = system: MCF-7 breast cancer cells; details: MCF-7 cells; cited from earlier work

O=c1c(-c2ccc(O)cc2)coc2cc(O)cc(O)c12 [GEN, Genistein]
puberty onset / vaginal opening [1]: delayed vaginal opening
puberty onset / vaginal opening ([1]; listed as genistein): delayed puberty onset
body weight or mammary epithelial development [2]: No significant differences
total epithelial area of the glands (mammary gland [3]): nearly significantly increased
DNMT1 expression in mammary tumors (DNMT1): significantly lower
expression of DNMT1 in mammary glands (DNMT1): a similar increase; also recorded: an increase in DNMT1 expression; also recorded: persistent up-regulation
cumulative tumor burden compared to the group exposed to control diet in utero (mammary tumors [4]; in utero exposure): approximately four
mammary tumorigenesis (onset of tumor growth and cumulative tumor burden) (mammary tumors [4]; in utero exposure compared to controls): Enhanced mammary tumorigenesis
birthweight, or postnatal weight development [5]: did not alter
mammary tumorigenesis (mammary tumors [6]; in utero exposed offspring compared to the controls): increased mammary tumorigenesis
Latency for first tumor to develop (mammary tumors [6]; in utero exposure (EE2 0.1 ppm or GEN 500 ppm in dam's diet) vs control mice): significantly shorter
Mammary tumor incidence (mammary tumors [6]; in utero exposure vs control mice): significantly higher
Final tumor burden per mouse (mammary tumors [6]; in utero exposure vs controls): significantly higher

C[C@]12CC[C@@H]3c4ccc(O)cc4CC[C@H]3[C@@H]1CC[C@@H]2O [E2, estradiol]
Mammary tumor incidence (mammary tumors [7]): higher
total tumor burden (mammary tumors [7]): also higher
tumor multiplicity (mammary tumors [7]): also higher
expression of ER-a [8]: up-regulated
acquired resistance to TAM (mammary tumors [9]): 50%
number of TEBs (mammary gland [10]; 1st generation offspring, postnatal day 21): increased
mammary gland morphology (parenchyma, TEBs, ductal elongation, size) (mammary gland [10]; 21-day-old rats exposed to 10 μg in utero vs control rats): contain a larger parenchyma and more TEBs, exhibit more advanced ductal elongation, and are larger
Fold down-regulated in E2 group (PcGTs; Actn1, alpha 1 actin): −5.63 (p < 0.03) Fold
Fold down-regulated in E2 group (PcGTs; Ccl2, chemokine (C-C motif) ligand 2): −1.81 (0.00) Fold
Fold down-regulated in E2 group (PcGTs; Ckm, muscle creatine kinase): −7.68 (p < 0.01) Fold
Fold down-regulated in E2 group (PcGTs; H19/Pro2605, H19fetal liver mRNA (imprinted gene)): −3.28 (p < 0.03) Fold
Fold up-regulated in E2 group (PcGTs; Hmgcs2, 3-hydroxy-3-methylglutaryl-Coenzyme A synthase 2): 2.46 (p < 0.00) Fold
Fold up-regulated in E2 group (PcGTs; Lep, Leptin): 1.59 (p < 0.02) Fold
Fold down-regulated in E2 group (PcGTs; Myh13, heavy polypeptide 13 myosin): −6.08 (p < 0.01) Fold
Fold down-regulated in E2 group (PcGTs; Myl2, light polypeptide 2 myosin): −10.19 (p < 0.02) Fold
Fold up-regulated in E2 group (PcGTs; Pdk4, puruvate dehydrogenase kinase isoenzyme 4): 1.82 (p < 0.02) Fold
Fold down-regulated in E2 group (PcGTs; Pvnlb, parvalbumin): −8.64 (p < 0.03) Fold
expression of the same miRNAs [11]: down-regulated

CC(C)(c1ccc(O)cc1)c1ccc(O)cc1 [BPA, Bisphenol A]
puberty onset / vaginal opening [1]: no effect
body weight or mammary epithelial development [2]: No significant differences
total epithelial area of the glands (mammary gland [3]): significantly increased
cumulative tumor burden compared to the group exposed to control diet in utero (mammary tumors [4]; C57BL/6, mouse, in vivo): ~1.5 times
mammary tumorigenesis (onset of tumor growth and cumulative tumor burden) (mammary tumors [4]; mouse, in vivo): Enhanced mammary tumorigenesis
